# Patent US20250108141A1, “TOPICAL FORMULATIONS FOR TARGETED DELIVERY OF THERAPEUTICS” (UNM RAINFOREST INNOVATIONS, priority 2023, published 2025)
# Entries after “also recorded” stand apart in the source; their conditions may differ.
# Assays:
# HPV16-infected SG3 cells = experiment: MK-8353 treatment of HPV16-infected SG3 cells, immunoblot; type: cell-based; conditions: MK-8353 dissolved in Tc, 48 h
# Procedure: The p-ERK1/2 inhibitor MK-8353 (Selleck Chemicals LLC, Houston, TX) was dissolved in 2-(2-ethoxyethoxy)ethanol (Tc) at 5 mM. HPV16-infected SG3 cells were plated in complete medium and then treatments were initiated without active agent or with increasing concentrations of MK-8353 in serum-free medium. At 24 h post treatment, fresh treatments were added and maintained for an additional 24 h. Cells treated for 48 h were lysed with detergent-containing buffer and 50 μg of each sample was analyzed by SDS-PAGE and immunoblot for the proteins of interest including p-ERK1/2, p-Fra1, HPV16 E7, and actin.
# MmuPV1 [1] = experiment: MmuPV1-induced tail tumor (wart) model, oral gavage; type: in vivo; conditions: oral gavage every 48 hours for four weeks, cobimetinib 7.5 or 15 mg/kg, trametinib 1.0 or 2.0 mg/kg, athymic nude mice
# Procedure: FIG. 3. […] Female Hsd:Athymic Nude-Foxn1^nu mice were infected with 2×10^8 viral genome equivalents (VGE) of MmuPV1 virions. Tumors (warts) were allowed to grow for 6 weeks before randomizing into vehicle or treatment groups (n=6 per group) with each group having an average tumor volume (length×width×height) of approximately 40 mm^3. Mice were dosed by oral gavage treatment every 48 hours for four weeks before harvesting each tumor for histology. (A) Quantification of tail tumor volumes over 32 days of treatment in mice infected with MmuPV1 and treated with vehicle, 7.5 mg/kg cobimetinib, or 15 mg/kg cobimetinib. (B) Quantification of tail tumor volume over 32 days of treatment in mice infected with MmuPV1 and treated with vehicle (same as in FIG. 3A), 1.0 mg/kg trametinib, or 2.0 mg/kg trametinib. Statistical analyses by two-way Anova, Dunnett's T3 test ([…], ** p<0.01). (C) Representative images of tail tumors of a mouse treated with vehicle only. (D) Representative images of tail tumors of a mouse treated with 7.5 mg/kg cobimetinib or 15 mg/kg cobimetinib. (E) Representative images of tail tumors of a mouse treated with 1.0 mg/kg trametinib or 2.0 mg/kg trametinib.
# [2] = tested on: HPV16-infected SG3 human keratinocytes; experiment: Topical treatment of HPV16-infected 3D organotypic epithelial raft tissues; type: cell-based
# Procedure: FIG. 6. […] HPV16-infected (SG3) cells were cultured as raft tissues for 12 days. Duplicate raft tissues were left untreated, or topically treated with 0.5 ml of either vehicle gel (20% Tc, 2.5% HPC in PBS) alone or 30 μM trametinib in vehicle gel for 48 hours. One raft from each duplicate set was collected for total protein extraction for SDS-PAGE and immunoblots (A), the second raft was harvested for tissue fixation, paraffin embedding, and cross-sectioning of tissues for histology (B-J). […] Panels B-D show histology by H&E staining in untreated, vehicle-treated, and 30 μM trametinib-treated rafts. […] Broken lines underscore the basal cell layer.
# FIG. 18. Experiment akin to that in FIG. 6, except that it uses 2.5% HPC and 10% Tc for the vehicle. Drug treatment includes 15 μM trametinib. Experimental groups were treated with the topical formulations for 24 hours or 48 hours before harvesting for immunoblots and tissue sectioning.
# The experimental protocol used in this example is illustrated in FIG. 5. A semi-solid collagen-fibroblast matrix was created to act as a dermal equivalent (stage 1). HPV16-infected SG3 human keratinocytes (cells) that maintained circular HPV16 genomes extrachromosomally were seeded on the top of the dermal equivalent submerged in growth medium (stage 2). After the HPV-infected keratinocytes grew to confluency (2-3 days), growth medium was removed, and the dermal equivalent was lifted to the air-liquid interface above fresh growth medium (stage 3). Fresh medium was replaced every two days. This allowed the keratinocytes to stratify and differentiate into a multilayered epithelium akin to human skin/mucosa within 10-12 days (Stage 4).
# The MEK1/2 inhibitor trametinib was dissolved in diethylene glycol monoethyl ether (TRANSCUTOL; Gattefosse SAS, Saint-Priest, France). The trametinib-2-(2-ethoxyethoxy)ethanol solution was combined with hydroxypropyl cellulose (KLUCEL MXF Pharma, 850 kDa), a pharmaceutical grade thermal gelation agent. Formulations of 30 μM trametinib, 20% 2-(2-ethoxyethoxy)ethanol, and 2.5% hydroxypropyl cellulose applied one time to stratified and differentiated HPV16-infected three-dimensional organotypic epithelial “raft” tissues cultured at the air-liquid interface for 12 days. Each treatment was carried out in duplicate. Tissues were harvested daily two to five days post treatment for total protein extraction and histological analyses (FIG. 6). Specifically, each raft tissue was divided in half with a scalpel. One half was subject to total protein extraction, SDS-PAGE and immunoblot; the second half was fixed in 10% neutral buffered formalin, embedded in paraffin, and sectioned ([…]) on to microscope slides. The tissue sections were subject to histology, immunohistochemistry, or in situ hybridization.
# Formulations according to TABLE 2 were prepared. Epithelial raft tissues were prepared as described in Example 1. Each formulation was topically applied to duplicate HPV-infected raft epithelial tissues.
# Each formulation was left on the tissue raft undisturbed for 48 hours. 48 hours after treatment, tissues were harvested for protein extraction and histological analysis as described above.
# In Example 3, epithelial raft tissues were topically treated in duplicate with formulations including trametinib and 2-(2-ethoxyethoxy)ethanol and analyzed for p-ERK1/2 and E7 protein expression after three days (72 hours). Epithelial raft tissues were prepared as described in Example 1. Formulations were prepared according to TABLE 2. Each epithelial raft tissue was topically treated with one formulation. 72 hours after treatment, epithelial raft tissues were collected for protein extraction.
# [3] = tested on: HPV16-infected SG3 human keratinocytes; experiment: as above; type: cell-based; conditions: TABLE 2 formulations, single topical treatment, 96 hours
# [4] = tested on: HPV16-infected cells established from cervix (W12-E); experiment: HPV16-infected W12-E 3D organotypic raft tissue, trametinib added systemically; type: cell-based; conditions: 10 nM trametinib added systemically every 48 hours on days 8, 10, 12
# Procedure: FIG. 2. Histology data showing that HPV16 oncogene transcription and activity is modulated by MEK1/2 activation in 3D organotypic epithelial tissue cultures. HPV16-infected cells established from cervix (W12-E) were cultured as raft tissues for 14 days. Panels A-D are taken from tissues cultured under normal conditions. Panels E-H are images of tissue cultured with 10 ng/mL EGF added systemically (in the cell culture medium below the basal layer and collagen matrix) every 48 hours on days 8, 10, and 12 post raft tissue lifting to the air-liquid interface. Panels I-L are images of tissues cultured with 10 nM trametinib added systemically every 48-hours on days 8, 10, and 12 post raft tissue lifting to the air-liquid interface. Tissues were examined for morphology (Top, H&E staining), phosphorylated ERK1/2 (p-ERK1/2) immunohistochemistry (brown), HPV E6&E7 mRNA in situ hybridization (red), and E7 activity via proxy p16INK4A immunohistochemistry. Broken lines underscore the basal cell layer above the collagen matrix; bars=100 μm.
# MmuPV1 [5] = experiment: Topical gel treatment of MmuPV1-induced tumors in vivo; design: species or system mice; conditions: daily topical gel (2.5% HPC, 15%-18% TRANSCUTOL) with trametinib 150 μM-600 μM; starting tumors 145.3 mm^3 to 279.4 mm^3
# Procedure: Mice bearing MmuPV1-induced tumors ranging in volume from 145.3 mm^3 to 279.4 mm^3 were treated daily with a topical gel (2.5% HPC, 15%-18% TRANSCUTOL (Gattefosse SAS, Saint-Priest, France)) containing the MEK inhibitor trametinib (150 μM-600 μM).
# [6] = increasing concentrations in serum-free medium
# [7] = 15 μM trametinib in 2.5% HPC and 10% Tc vehicle, 24 hours or 48 hours
# [8] = TABLE 2 formulations, 30 μM trametinib, single topical treatment, 48 hours
smiles,measurement,setting,value
CS[C@@]1(C(=O)Nc2ccc3[nH]nc(-c4ccc(OC(C)C)nc4)c3c2)CCN(CC(=O)N2CC=C(c3ccc(-c4ncn(C)n4)cc3)CC2)C1 [MK-8353],phosphorylation of ERK1/2 (p-ERK1/2),HPV16-infected SG3 cells,does not necessarily prevent
same,levels of the HPV16 E7 oncoprotein,HPV16-infected SG3 cells; [6],reduce the levels
same,p-ERK1/2 activity as measured by p-Fra1 phosphorylation,HPV16-infected SG3 cells; [6],Suppresses
"O=C(c1ccc(F)c(F)c1Nc1ccc(I)cc1F)N1CC(O)([C@@H]2CCCCN2)C1 [cobimetinib, (S)-[3,4-Difluoro-2-(2-fluoro-4-iodophenylamino)phenyl][3-hydroxy-3-(piperidin-2-yl)azetidine-1-yl]methanone]",tail tumor (wart) volume,MmuPV1 [1],"suppresses MmuPV1-induced benign tumor (e.g., wart) growth"
same,tail tumor (wart) volume,MmuPV1 [1]; listed as Cobimetinib,suppresses wart growth but did not lead to regression
"CC(=O)Nc1cccc(-n2c(=O)n(C3CC3)c(=O)c3c(Nc4ccc(I)cc4F)n(C)c(=O)c(C)c32)c1 [trametinib, N-(3-{3-Cyclopropyl-5-[(2-fluoro-4-iodophenyl)amino]-6,8-dimethyl-2,4,7-trioxo-3,4,6,7-tetrahydropyrido[4,3-d]pyrimidin-1 (2H)-yl}phenyl)acetamide]",tail tumor (wart) volume,MmuPV1 [1],leads to tumor regression; also recorded: regression of warts to a smaller size than those originally treated
same,E6/E7 mRNA detection,[2]; [7],reduced
same,p-ERK1/2 protein detection,[2]; [7],reduced
same,p-ERK1/2 by immunoblot,"[2]; 30 μM trametinib, 20% 2-(2-ethoxyethoxy)ethanol, 2.5% HPC gel, applied one time, two days (48 hours) post treatment",complete suppression; also recorded: reduction in p-ERK1/2 to almost undetectable levels
same,"p-ERK1/2 suppression, later harvests","[2]; 30 μM trametinib, 20% Tc, 2.5% HPC gel, applied one time, three to five days post treatment",sustained
same,p-ERK1/2 by immunohistochemistry,"[2]; 30 μM trametinib, 20% Tc, 2.5% HPC gel, 48 hours",abrogates
same,HPV16 E6/E7 mRNA by in situ hybridization,"[2]; 30 μM trametinib, 20% Tc, 2.5% HPC gel, two days post treatment",complete suppression; also recorded: reduces E6/E7 mRNA to undetectable levels
same,HPV16 E7 protein by immunoblot,[2]; [8],suppresses
same,p-ERK1/2 by immunoblot,[2]; [8],suppresses
same,hyperplasia,"[2]; one-time topical treatment, 30 μM trametinib, 20% Tc, 2.5% HPC",suppressed
same,E7 by immunoblot,[3],decrease
same,p-ERK1/2 by immunoblot,[3],decrease
same,E7 activity (E7 surrogate p16INK4A protein),[4],suppresses
same,MEK activation (p-ERK1/2 immunohistochemistry),[4],suppresses
same,production of E6/E7 mRNA (in situ hybridization),[4],suppresses
same,hyperproliferation,[4]; raft tissues cultured 14 days,suppresses
same,MmuPV1 tumor volume,MmuPV1 [5],promotes MmuPV1 tumor regression
